Test results reported in paper PMC4226669, “Anti-cancer potency of tasquinimod is enhanced via albumin-binding facilitating increased uptake in the tumor microenvironment” (Oncotarget, 2014).

Assays:
[1] = target: human serum albumin (HSA) (Homo sapiens, UniProt P02768); test: Reversibility of albumin binding (dialysis against drug free HSA); conditions: after 4 hours of dialysis, pH 7.4
Description: In additional studies, 200 μg (i.e., 3nmol) of human serum albumin (HSA) was incubated with 400 pmoles of ^14C-labeled tasquinimod at pH 7.4 so that 50% of the drug is protein bound. This solution was then placed in a dialysis chamber opposite an equal volume of a solution containing 8 mg (i.e., 120 nmoles) of drug free HSA at pH 7.4 separated by a membrane which is permeable to unbound free tasquinimod, but impermeable to albumin. The 8 mg of HSA in the initial drug free side was chosen because this amount of albumin can bind 98% of the drug when exposed to 400 pmoles of tasquinimod.

[2] = Protein binding fraction (PBF) in bovine fetal serum; assay type: in vitro ADME; conditions: bovine fetal serum (FBS), 1-50 μM radiolabeled tasquinimod
Description: An explanation for this highly restricted cellular uptake in the blood is provided by the fact that protein binding fraction (PBF) for tasquinimod in nude mouse plasma is 98 ± 1%. This is not a nude mouse specific effect since incubation of 1-50 μM radiolabeled tasquinimod with human plasma or bovine fetal serum (FBS) results in a PBF of ~ 98%.
Mice were orally gavaged with ^14C-labeled tasquinimod at a dose of 5mg/kg and 1 hour later blood collected and plasma isolated and the PBF determined as described previously using Centrifree® YM-30 centrifuge filter unit with a molecular weight cutoff of 30K (i.e., Millipore, Billerica,MO).

[3] = tested on: CWR-22Rv1 human prostate cancer cells; test: Plasma membrane associated vs nuclear drug uptake in CWR-22Rv1 cells; assay type: cell-based
Description: Based upon these preliminary validation, cells were incubated in 10% fetal bovine serum (FBS) supplemented media containing 1μM ^14C-labeled tasquinimod for <10 minutes. When these cells are rapidly (< 20sec) separated from the media by vacuum filtration onto glass microfiber filter and the filters rapidly (< 20sec) washed, radiolabeled drug is retained by the washed cells and this radioactivity can be used to calculate the total cell associated concentration of drug (CAt). If instead after the washes, media are added above the filters and allowed to remain for a 15 minutes “wash out” period before being vacuumed off and subsequently rapidly (< 20sec) washed with drug free media, […]. […] Thus, total plasma membrane associated drug concentration (PMt) is determined by subtracting the ICt from the CAt value.
(§1) To determine the total nuclear concentration of drug (Nt), a modified protocol was needed to allow the rapid lyses of cells and rapid isolation of cell nuclei by differential centrifugation. This could not be accomplished using the usual method of detergent lyses because detergents extract bound drug due to its lipophilicity. Therefore, a detergent free protocol using nitrogen cavitation was developed to rapidly lyse cells and allow the rapid isolation of nuclei via differential centrifugation. Using this cavitation protocol, it was documented that within 1 hour, total nuclear drug concentration (Nt) equals that of the protein-free drug concentration in the media (i.e., 0.2 μM), and that after 4 hours equals PMt (i.e., see Figure 3B, right panel for representative results for the CWR-22Rv1 cells). From 8 hours onward, Nt is more than 10 fold higher than the free and 2 fold higher than the total drug concentration in the media, Figure 3B, right panel. For example at 24 hours post exposure to 1 μM tasquinimod in 10% FBS containing media, the Nt is 2.4 ± 0.3 μM, Figure 3B, right panel. At this 24 hours period, total radioactive drug in isolated nuclei from all 3 prostate cancer lines, as well as HUVEC cells (i.e., nuclear concentration in these 4 lines ranged from 2.2-3.1 μM) was extracted with acetonitrile and the extracts analyzed by HPLC. […] To resolve this, nuclear uptake was determined 24 hours post exposure to 1 μM tasquinimod in serum free media. These studies again documented that nuclear tasquinimod concentration in these 4 cell lines ranged from 2.5-3.5 μM documenting that binding to albumin is not required for cell uptake.
A rapid filtration method was developed and validated to measures the kinetics of tasquinimod cell uptake on a series of human cell lines. To do this, exponentially growing cells in a tissue culture flask are trypsinized, and the number of single cells counted and their average diameter determined electronically using Cellometer AutoT4 (Nexcelom, Lawrence, MA). Then multiple replicates (N=3-6) of 10^7 cells per time point were incubated from 5 minutes to 48 hours. at 37°C in 1ml of tissue culture media containing 10% fetal bovine serum (FBS) plus 1μM ^14C-labeled tasquinimod. The cells in each replicate incubation were then rapidly separated from the tasquinimod containing media by vacuum filtration onto a 24mm Whatman GF/C glass microfiber filter (GE Healthcare Sciences, Piscataway, NJ) using a Millipore 1225 sampling manifold (Millipore, Billerica MA). The filters are then rapidly washed and filtered (<20 seconds per wash) 3 times with 2mls of drug free FBS containing tissue culture media. Half of the replicate filters are then dried overnight and counted for determination of the total cell associated amount of drug (i.e., plasma membrane associated plus intracellular uptake). To the remaining half of the replicate filters, 2mls of drug free FBS containing tissue culture media is added above the filters and allowed to remain there for 15 minutes before being filtered off. […]

[4] = tested on: CWR-22Rv1, LAPC-4, LNCaP and HUVEC cells; test: Nuclear drug uptake in 3 prostate cancer lines and HUVEC; assay type: cell-based, human
Source text: as §1
To specifically determine the concentration of tasquinimod within the cell nucleus, 10^7 cells were incubated in 1ml of tissue culture media containing 10% fetal bovine serum (FBS) plus 1μM ^14C-labeled tasquinimod for varying times before the cells were centrifuged rapidly (i.e., 1000xG for 2 min) to remove the drug containing media. The cells were rapidly resuspended in phosphate buffered saline and exposed to pressurized (i.e., 500lbs/sq in) N2 in a nitrogen cavitation devise (i.e., Parr bomb, Parr Instrument Company, Moline, Il) for 5 min before the plasma membranes were lysed by the rapid release of the pressure. This detergent free procedure lyses >98% of the cells without disrupting either mitochondria or lysosomes. […] The radioactivity of this pellet was counted and used to calculate the total amount of tasquinimod associated with 10^7 cell nuclei. To determine the nuclear drug concentration, this total nuclear drug amount was […] the total volume of 10^7 cell nuclei determined from the average diameter of the nuclei determined electronically using Cellometer AutoT4.

human serum albumin (HSA), sequence (P02768 25-609): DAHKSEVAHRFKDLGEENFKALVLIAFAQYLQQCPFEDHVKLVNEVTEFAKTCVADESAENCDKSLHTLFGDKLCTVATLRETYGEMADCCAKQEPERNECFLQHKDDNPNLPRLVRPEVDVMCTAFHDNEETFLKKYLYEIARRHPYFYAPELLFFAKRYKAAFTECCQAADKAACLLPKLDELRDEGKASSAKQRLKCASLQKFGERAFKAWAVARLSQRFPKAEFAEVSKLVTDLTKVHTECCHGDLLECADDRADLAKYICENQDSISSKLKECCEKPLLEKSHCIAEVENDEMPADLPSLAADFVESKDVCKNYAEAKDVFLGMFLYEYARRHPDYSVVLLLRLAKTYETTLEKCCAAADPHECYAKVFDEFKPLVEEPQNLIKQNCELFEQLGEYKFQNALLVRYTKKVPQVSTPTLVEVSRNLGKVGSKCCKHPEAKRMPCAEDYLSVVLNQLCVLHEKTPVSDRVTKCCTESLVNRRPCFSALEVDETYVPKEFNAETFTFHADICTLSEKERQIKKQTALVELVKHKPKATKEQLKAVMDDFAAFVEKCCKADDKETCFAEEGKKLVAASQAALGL

**Q.** Which “initial protein bound tasquinimod released” value [1] does the source give for `COc1cccc2c1c(O)c(C(=O)N(C)c1ccc(C(F)(F)F)cc1)c(=O)n2C` [Tasquinimod] here?
**A.** 65 ± 9%

**Q.** What about the fraction unbound [2] of the same molecule?
**A.** ~0.02

**Q.** And the “time to steady state PMt” value ([3]; 1 μM in 10% FBS media)?
**A.** 5 to 10 min

**Q.** And the “total plasma membrane associated drug concentration (PMt), steady state” value ([3]; 1 μM in 10% FBS media, maintained to 48 hours)?
**A.** ~ 1 μM

**Q.** And the “total nuclear drug concentration (Nt)” value ([3]; 24 hours post exposure to 1 μM in 10% FBS containing media)?
**A.** 2.4 ± 0.3 µM

**Q.** And the “Nt relative to free drug concentration in the media” value ([3]; from 8 hours onward)?
**A.** more than 10 fold

**Q.** And the “Nt relative to total drug concentration in the media” value ([3]; from 8 hours onward)?
**A.** > 2 fold

**Q.** And the “total nuclear drug concentration (Nt)” value ([3]; within 1 hour, 1 μM in 10% FBS media)?
**A.** 0.2 µM

**Q.** What about the “nuclear concentration, range over 4 lines” value ([4]; 24 hours, 1 μM in 10% FBS media) of the same molecule?
**A.** 2.2 to 3.1 µM

**Q.** And the “nuclear tasquinimod concentration, range over 4 cell lines” value ([4]; 24 hours, 1 μM in serum free media)?
**A.** 2.5 to 3.5 µM

**Q.** And the “drug present within nuclei that is non-metabolized tasquinimod” value ([4]; 24 hours, each of 4 cell lines, HPLC)?
**A.** > 95%

**Q.** And the intracellular drug concentration ([4]; exposure of cancer and endothelial cells to 0.5-1μM)?
**A.** 2 to 3 µM
